Results published in US20120329803A1, “Dihydropteridinones, method for production and use thereof” (BOEHRINGER INGELHEIM INTERNATIONAL GMBH, priority 2010, published 2012).
pEC50, pIC50: −log10 of the molar value. “And” between values parts separate entries of the source, which are not always exact repeats. Identical values can stand only once. Like-named read-outs stand apart in the source and are kept apart here.

Columns and labels:
hERG channel = biological target: T1, hERG channel (Homo sapiens, UniProt Q12809); experiment: hERG channel assay (whole-cell patch clamp); assay type: cell-based; settings: HEK 293 cells stably transfected with hERG; 0.3, 1, 3, 10 μM tested; read-out: residual currents value (half-inhibitory concentration from fit to residual hERG current)
T1 construct: expressed in transfected cells; host or cells: HEK293 cells, stably transfected; cDNA from M. Sanguinetti, University of Utah
Procedure: HEK (human embryonic kidney) 293 cells are stably transfected with hERG cDNA (obtained courtesy of M. Sanguinetti, University of Utah). Cells determined for use in patch clamp experiments are plated on glass coverslips in 24 well plates and are cultivated without antibiotic during this time.
Coverslips are placed at the bottom of a 2 mL perfusion chamber mounted on the stage of an inverted microscope. Cells are superfused with a bath solution containing (mM): NaCl (137), KCl (4.0), MgCl2 (1.0), CaCl2 (1.8), Glucose (10), HEPES (10), pH 7.4 with NaOH. […]
Membrane currents are recorded using an EPC-10 or equivalent patch clamp amplifier (HEKA Electronics, Lambrecht, FRG) using the whole-cell configuration of the patch-clamp technique. hERG-mediated inactivating tail currents are elicited using a brief hyperpolarising pulse after channel inactivation at a depolarised potential.
Four concentrations of the compound of formula (12B) according to the present invention (0.3, 1, 3, 10 μM) are applied on different cells. A steady state level of baseline current is measured prior to the application of the test article. […]
Peak current amplitudes are measured for each hyperpolarising step. […] Residual currents (I/Io) are calculated for each cell as the fraction of actual average peak current and average baseline peak current. Current inhibition is expressed as (1−I/I0)*100%. […]

[1] = test system: NCI-H460 human lung carcinoma cells; experiment: Alamar Blue cell proliferation assay, NCI-H460; assay type: cell-based; settings: 72 h
Procedure: (§1) Kinase assays are performed using full-length recombinant Plk1 enzyme produced in a baculovirus expression system and casein from bovine milk as a substrate. Results represent the means of 2 independent experiments with each data point measured in duplicate. NCI-H460 human non-small cell lung cancer and HCT 116 human colon carcinoma cell lines are used in Alamar Blue™ based proliferation assays. Results represent the means of 3 dose titrations for each cell line with each data point measured in duplicate. Two independent kinase assay experiments are carried out to determine the inhibitory activity of compound (12B) on the Plk1 enzyme. 7 concentrations of compound (12B) are used and each concentration is tested in duplicate measurements.
(§2) For each cell line a proliferation assay experiment is carried out to determine the EC50 values in triplicate. 12 concentrations of each compound are used and each concentration is tested in duplicate measurements.
(§3) HCT 116 human colorectal carcinoma (ATCC CCL 247) and NCI-H460 human lung carcinoma (ATCC HTB-177) cells are used in an Alamar Blue™ based proliferation assay.
(§4) The Alamar Blue™ assay is designed to quantitatively measure the proliferation of cells by incorporating a fluorometric/colorimetric growth indicator that is based on the detection of metabolic activity in viable cells.
(§5) HCT 116 and NCI-H460 cells are grown in IMDM medium containing 10% FCS and 2 mM L-glutamine. They are maintained at 37° C. and 5% CO2 in a humidified atmosphere with a split ratio of 1:5. For proliferation assays in the 96-well format, penicillin-streptomycin is added to the medium at a final concentration of 100 u/ml penicillin and 100 μg/ml streptomycin.
(§6) On day one of the experiment, 1000 cells in 180 μl medium are seeded into each well of a sterile 96-well flat-bottom plate. The plates are kept in the incubator overnight. The compounds are dissolved in DMSO at a concentration of 1000 μM. On day two of the experiment, 12 serial dilutions (1:3) of the compounds are prepared in medium containing 0.1% DMSO. 20 μl of the dilutions are added to each well to yield a final volume of 200 μl per well. As a control, medium containing 0.1% DMSO is added to the designated wells. The cells are then incubated for 72 h. After this incubation period, 20 μl of Alamar Blue™ is added to each well. After 6 h of incubation, the plates are measured in a fluorescence spectrophotometer (excitation 531 nm, emission 595 nm, slits 15, integrate time 0.1). All data points are measured in duplicates.
(§7) The mean value from the duplicates is taken and the background is subtracted. The “0.1% DMSO value” (the mean value obtained from wells containing cells plus 0.1% DMSO containing medium) is taken as “100% control”. […]

[2] = test system: HCT 116 human colorectal carcinoma cells; experiment: Alamar Blue cell proliferation assay, HCT 116; assay type: cell-based; settings: HCT 116 cells, 72 h
Procedure: as §1, §2, §3, §4, §5, §6, §7

human Plk1 enzyme = biological target: T2, human Plk1 enzyme (Homo sapiens, UniProt P53350); experiment: Plk1 low enzyme inhibition (kinase) assay; assay type: biochemical; settings: casein substrate, 7.5 μM ATP
T2 construct: The full-length coding region of the human Plk1 enzyme (residues 1-603); made in house; host or cells: Sf21 insect cells, baculovirus (pAcG2T vector, BD Biosciences)
Procedure: as §1
The compound is dissolved in DMSO at a concentration of 10 mM. For the proliferation assay and the first kinase assay the compound is freshly dissolved. For the second kinase assay a 10 mM stock solution in DMSO is used.
A baculoviral expression system is used to generate full-length recombinant Plk1 enzyme for the assay. Casein from bovine milk is used as a substrate. All other reagents are from the highest grade of purity commercially available. […]

[3] = measurement 1, read-out: Measurement 1 EC50
[4] = measurement 2, read-out: Measurement 2 EC50
[5] = measurement 3, read-out: Measurement 3 EC50

T2 sequence (P53350 whole entry, the tested form may be a part): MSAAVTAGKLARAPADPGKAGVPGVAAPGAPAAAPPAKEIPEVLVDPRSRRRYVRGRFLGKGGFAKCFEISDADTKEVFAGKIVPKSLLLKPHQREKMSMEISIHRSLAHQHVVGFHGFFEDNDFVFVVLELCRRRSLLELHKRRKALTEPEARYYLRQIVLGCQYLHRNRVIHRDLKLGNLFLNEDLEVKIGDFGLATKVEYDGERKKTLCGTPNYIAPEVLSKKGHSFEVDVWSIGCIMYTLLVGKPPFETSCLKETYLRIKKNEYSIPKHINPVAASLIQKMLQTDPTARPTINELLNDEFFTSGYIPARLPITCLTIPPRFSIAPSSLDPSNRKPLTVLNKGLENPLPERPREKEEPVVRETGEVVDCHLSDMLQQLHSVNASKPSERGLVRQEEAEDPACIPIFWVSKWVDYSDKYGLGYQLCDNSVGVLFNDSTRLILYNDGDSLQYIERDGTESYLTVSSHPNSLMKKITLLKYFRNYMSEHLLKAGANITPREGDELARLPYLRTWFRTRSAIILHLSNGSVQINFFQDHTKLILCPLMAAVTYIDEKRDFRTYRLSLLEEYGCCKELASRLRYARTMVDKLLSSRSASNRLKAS
T1 sequence (Q12809 whole entry): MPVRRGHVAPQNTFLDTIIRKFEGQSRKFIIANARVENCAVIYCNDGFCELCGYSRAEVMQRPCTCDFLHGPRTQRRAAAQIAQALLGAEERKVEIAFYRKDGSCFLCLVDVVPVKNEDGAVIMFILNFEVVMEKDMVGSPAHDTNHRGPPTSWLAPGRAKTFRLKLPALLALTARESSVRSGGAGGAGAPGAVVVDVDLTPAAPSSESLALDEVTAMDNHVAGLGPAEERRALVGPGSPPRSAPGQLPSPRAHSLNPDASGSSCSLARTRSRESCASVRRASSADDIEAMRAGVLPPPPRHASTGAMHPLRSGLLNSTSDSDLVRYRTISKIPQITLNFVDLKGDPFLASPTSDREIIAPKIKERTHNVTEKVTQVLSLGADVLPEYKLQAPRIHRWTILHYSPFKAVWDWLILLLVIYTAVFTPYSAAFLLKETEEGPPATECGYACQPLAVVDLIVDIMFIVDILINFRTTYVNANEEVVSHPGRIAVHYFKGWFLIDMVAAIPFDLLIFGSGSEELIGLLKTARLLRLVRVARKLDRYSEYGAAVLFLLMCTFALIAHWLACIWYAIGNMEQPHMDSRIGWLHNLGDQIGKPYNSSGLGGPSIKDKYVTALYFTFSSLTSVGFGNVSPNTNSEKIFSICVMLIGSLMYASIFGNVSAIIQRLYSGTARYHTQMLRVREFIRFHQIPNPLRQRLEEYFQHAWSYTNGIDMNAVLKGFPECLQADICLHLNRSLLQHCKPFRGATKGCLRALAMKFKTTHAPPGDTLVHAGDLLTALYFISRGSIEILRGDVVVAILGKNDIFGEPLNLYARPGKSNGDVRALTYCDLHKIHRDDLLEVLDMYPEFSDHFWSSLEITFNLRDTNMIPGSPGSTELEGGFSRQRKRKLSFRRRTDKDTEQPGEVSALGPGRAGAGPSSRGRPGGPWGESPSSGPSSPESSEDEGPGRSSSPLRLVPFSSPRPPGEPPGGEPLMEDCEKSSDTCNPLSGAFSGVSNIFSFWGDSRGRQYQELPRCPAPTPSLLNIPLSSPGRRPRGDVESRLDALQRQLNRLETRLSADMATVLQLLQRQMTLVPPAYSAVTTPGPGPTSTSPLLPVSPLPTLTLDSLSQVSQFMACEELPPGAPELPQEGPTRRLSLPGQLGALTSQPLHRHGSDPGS

CCC1(O)C(=O)N(C)c2cnc(Nc3ccc(C(=O)N[C@H]4CC[C@H](N5CCN(CC6CC6)CC5)CC4)cc3OC)nc2N1C(C)C (some centres unmarked) [compound 12B]
pIC50 (hERG channel): 5.02 | pEC50 ([1]; mean of 3, read-out: Mean EC50): 6.37 | pEC50 [1, 3]: 6.29 | pEC50 [1, 4]: 6.33 | pEC50 [1, 5]: 6.52 | pEC50 ([2]; mean of 3, read-out: Mean EC50): 6.56 | pEC50 [2, 3]: 6.51 | pEC50 [2, 4]: 6.47 | pEC50 [2, 5]: 6.76 | pIC50 (human Plk1 enzyme; mean of 2 independent experiments, read-out: Mean IC50): 8.10 | pIC50 (human Plk1 enzyme; single experiments (experiment number 1, 2), read-out: IC50): 8.09 and 8.10
